Reference: PubChem BioAssay (NCI)
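Method: 48-hour compound exposure of cells in 96-well plates, five concentrations, linear interpolation of endpoints. GI50 marks 50% less growth. TGI denotes the concentration required for complete inhibition of growth.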

Assays:
Experiment in all cases: NCI anticancer screen, dose series, 48 h
HCC-2998 colon = system: HCC-2998 colon
SF-295 CNS = system: SF-295 CNS
NCI-H522 lung = system: NCI-H522 lung
MDA-MB-231 breast = system: MDA-MB-231 breast
HOP-92 NSCLC = system: HOP-92 NSCLC
SW-620 colon = system: SW-620 colon
RPMI-8226 leukemia = system: RPMI-8226 leukemia
CCRF-CEM leukemia = system: CCRF-CEM leukemia
SK-MEL-2 melanoma = system: SK-MEL-2 melanoma
ACHN renal = system: ACHN renal
DU-145 prostate = system: DU-145 prostate
RXF 393 renal = system: RXF 393 renal
MDA-MB-435 = system: MDA-MB-435
SN12C renal = system: SN12C renal
HS 578T breast = system: HS 578T breast
HCT-116 colon = system: HCT-116 colon
NCI-H460 lung = system: NCI-H460 lung
UO-31 renal = system: UO-31 renal
UACC-257 melanoma = system: UACC-257 melanoma
COLO 205 colon = system: COLO 205 colon
K-562 leukemia = system: K-562 leukemia
KM12 colon = system: KM12 colon
786-0 renal = system: 786-0 renal
MDA-MB-468 breast = system: MDA-MB-468 breast
MOLT-4 leukemia = system: MOLT-4 leukemia
TK-10 renal = system: TK-10 renal
SNB-75 CNS = system: SNB-75 CNS
HT29 colon = system: HT29 colon
T-47D breast = system: T-47D breast
HCT-15 colon = system: HCT-15 colon
IGROV1 ovarian = system: IGROV1 ovarian
OVCAR-5 ovarian = system: OVCAR-5 ovarian
OVCAR-8 ovarian = system: OVCAR-8 ovarian
SF-268 CNS = system: SF-268 CNS
SR leukemia = system: SR leukemia
MCF7 breast = system: MCF7 breast
M14 melanoma = system: M14 melanoma
SK-OV-3 ovarian = system: SK-OV-3 ovarian
SNB-19 CNS = system: SNB-19 CNS
NCI-H226 lung = system: NCI-H226 lung
UACC-62 melanoma = system: UACC-62 melanoma
LOX IMVI melanoma = system: LOX IMVI melanoma
U251 CNS = system: U251 CNS
EKVX NSCLC = system: EKVX NSCLC
SK-MEL-28 melanoma = system: SK-MEL-28 melanoma
NCI-H23 lung = system: NCI-H23 lung
PC-3 prostate = system: PC-3 prostate
A498 renal = system: A498 renal
BT-549 breast = system: BT-549 breast
SK-MEL-5 melanoma = system: SK-MEL-5 melanoma
OVCAR-3 ovarian = system: OVCAR-3 ovarian
SF-539 CNS = system: SF-539 CNS
MALME-3M melanoma = system: MALME-3M melanoma
A549 NSCLC = system: A549 NSCLC
HL-60(TB) leukemia = system: HL-60(TB) leukemia
HOP-62 NSCLC = system: HOP-62 NSCLC
CAKI-1 renal = system: CAKI-1 renal
OVCAR-4 ovarian = system: OVCAR-4 ovarian

## O=C1C=CC(=CC=C2N(Cc3ccc4ccccc4c3)c3ccccc3N2Cc2ccc3ccccc3c2)C=C1
HCC-2998 colon
  GI50: 1.5 µM
  TGI: 3.01 µM
SF-295 CNS
  GI50: 1.29 µM
  TGI: 2.87 µM
NCI-H522 lung
  GI50: 1.48 µM
  TGI: 3.03 µM
MDA-MB-231 breast
  GI50: 1.4 µM
  TGI: 2.76 µM
HOP-92 NSCLC
  GI50: 0.883 µM
  TGI: 2.5 µM
SW-620 colon
  GI50: 1.26 µM
  TGI: 2.66 µM
RPMI-8226 leukemia
  GI50: 0.428 µM
  TGI: 2.18 µM
CCRF-CEM leukemia
  GI50: 1.46 µM
  TGI: 6.22 µM
SK-MEL-2 melanoma
  GI50: 1.58 µM
  TGI: 3.01 µM
ACHN renal
  GI50: 3.59 µM
  TGI: > 100 µM
DU-145 prostate
  GI50: 2.67 µM
  TGI: > 100 µM
RXF 393 renal
  GI50: 1.33 µM
  TGI: 2.87 µM
MDA-MB-435
  GI50: 1.36 µM
  TGI: 2.69 µM
SN12C renal
  GI50: 1.51 µM
  TGI: 4.68 µM
HS 578T breast
  GI50: 1.47 µM
  TGI: 4.08 µM
HCT-116 colon
  GI50: 0.971 µM
  TGI: 3.16 µM
NCI-H460 lung
  GI50: 0.654 µM
  TGI: 1.96 µM
UO-31 renal
  GI50: > 20.7 µM
  TGI: > 100 µM
UACC-257 melanoma
  GI50: 1.68 µM
  TGI: 3.61 µM
COLO 205 colon
  GI50: 1.29 µM
  TGI: 2.74 µM
K-562 leukemia
  GI50: 0.514 µM
KM12 colon
  GI50: 1.52 µM
  TGI: 3.75 µM
786-0 renal
  GI50: 1.58 µM
  TGI: 3.04 µM
MDA-MB-468 breast
  GI50: 0.399 µM
  TGI: 1.49 µM
MOLT-4 leukemia
  GI50: 1.48 µM
  TGI: 4.32 µM
TK-10 renal
  GI50: 2.06 µM
  TGI: 5.27 µM
SNB-75 CNS
  GI50: 1.18 µM
  TGI: 3.18 µM
HT29 colon
  GI50: 1.88 µM
  TGI: 5.6 µM
T-47D breast
  GI50: 1.33 µM
  TGI: 4.75 µM
HCT-15 colon
  GI50: 3.74 µM
  TGI: > 100 µM
IGROV1 ovarian
  GI50: 1.23 µM
  TGI: 2.57 µM
OVCAR-5 ovarian
  GI50: 1.72 µM
  TGI: 4.41 µM
OVCAR-8 ovarian
  GI50: 0.971 µM
  TGI: 2.35 µM
SF-268 CNS
  GI50: 2.78 µM
  TGI: 8.81 µM
SR leukemia
  GI50: 0.902 µM
  TGI: 3.62 µM
MCF7 breast
  GI50: 1.19 µM
  TGI: 2.54 µM
M14 melanoma
  GI50: 0.999 µM
  TGI: 2.52 µM
SK-OV-3 ovarian
  GI50: 1.72 µM
  TGI: 5.26 µM
SNB-19 CNS
  GI50: 0.92 µM
  TGI: 2.34 µM
NCI-H226 lung
  GI50: 1.39 µM
  TGI: 2.98 µM
UACC-62 melanoma
  GI50: 1.4 µM
  TGI: 2.82 µM
LOX IMVI melanoma
  GI50: 0.887 µM
  TGI: 2.23 µM
U251 CNS
  GI50: 0.52 µM
  TGI: 1.78 µM
EKVX NSCLC
  GI50: 1.26 µM
  TGI: 3.94 µM
SK-MEL-28 melanoma
  GI50: 1.29 µM
  TGI: 2.84 µM
NCI-H23 lung
  GI50: 1.25 µM
  TGI: 2.7 µM
PC-3 prostate
  GI50: 0.956 µM
  TGI: 3.1 µM
A498 renal
  GI50: 2.89 µM
  TGI: > 26.9 µM
BT-549 breast
  GI50: 1.26 µM
  TGI: 3.42 µM
SK-MEL-5 melanoma
  GI50: 0.697 µM
  TGI: 1.69 µM
OVCAR-3 ovarian
  GI50: 0.904 µM
  TGI: 2.31 µM
SF-539 CNS
  GI50: 1.73 µM
  TGI: 4.07 µM
MALME-3M melanoma
  GI50: 1.41 µM
  TGI: 3.2 µM
A549 NSCLC
  GI50: 1.53 µM
  TGI: > 100 µM
HL-60(TB) leukemia
  GI50: 0.385 µM
  TGI: 1.98 µM
HOP-62 NSCLC
  GI50: 2.21 µM

## O=C(N/N=C/c1ccc(-c2ccc(O)cc2)s1)c1[nH]c2ccc(Br)cc2c1-c1ccccc1
HCC-2998 colon
  GI50: 3.16 µM
  TGI: 10.6 µM
SF-295 CNS
  GI50: 2.2 µM
  TGI: 5.28 µM
NCI-H522 lung
  GI50: 3.42 µM
  TGI: 14.3 µM
MDA-MB-231 breast
  GI50: 3.36 µM
  TGI: 11.5 µM
HOP-92 NSCLC
  GI50: 2.98 µM
  TGI: 9.12 µM
SW-620 colon
  GI50: 4.14 µM
  TGI: 15.2 µM
RPMI-8226 leukemia
  GI50: 3.14 µM
  TGI: > 100 µM
CAKI-1 renal
  GI50: 3.46 µM
  TGI: 13.8 µM
CCRF-CEM leukemia
  GI50: 2.46 µM
  TGI: > 100 µM
SK-MEL-2 melanoma
  GI50: 3.45 µM
  TGI: 12.2 µM
ACHN renal
  GI50: 2.92 µM
  TGI: 10.9 µM
DU-145 prostate
  GI50: 4.48 µM
  TGI: 15.7 µM
RXF 393 renal
  GI50: 1.92 µM
  TGI: 4.56 µM
MDA-MB-435
  GI50: 2.99 µM
  TGI: 10.1 µM
SN12C renal
  GI50: 3.48 µM
  TGI: 13 µM
HS 578T breast
  GI50: 3.02 µM
  TGI: 14.1 µM
HCT-116 colon
  GI50: 3.09 µM
  TGI: 11.7 µM
NCI-H460 lung
  GI50: 2.72 µM
  TGI: 7.99 µM
UO-31 renal
  GI50: 2.7 µM
  TGI: 13.5 µM
UACC-257 melanoma
  GI50: 10.5 µM
  TGI: 28 µM
COLO 205 colon
  GI50: 7.12 µM
  TGI: 23 µM
K-562 leukemia
  GI50: 2.95 µM
  TGI: > 100 µM
KM12 colon
  GI50: 2.77 µM
  TGI: 9.53 µM
786-0 renal
  GI50: 2.16 µM
  TGI: 9.19 µM
MDA-MB-468 breast
  GI50: 2.67 µM
  TGI: 7.57 µM
TK-10 renal
  GI50: 5.05 µM
  TGI: 19.3 µM
SNB-75 CNS
  GI50: 3.27 µM
  TGI: 12.4 µM
HT29 colon
  GI50: 2.3 µM
  TGI: 5.36 µM
T-47D breast
  GI50: 4.6 µM
  TGI: 39.4 µM
HCT-15 colon
  GI50: 2.72 µM
  TGI: 10.6 µM
IGROV1 ovarian
  GI50: 3.45 µM
  TGI: 12.9 µM
OVCAR-5 ovarian
  GI50: 5.15 µM
  TGI: 17.2 µM
OVCAR-8 ovarian
  GI50: 4.22 µM
  TGI: 17 µM
SF-268 CNS
  GI50: 5.16 µM
  TGI: 20.3 µM
MCF7 breast
  GI50: 2.57 µM
  TGI: 10.9 µM
M14 melanoma
  GI50: 2.75 µM
  TGI: 10.5 µM
SK-OV-3 ovarian
  GI50: 12.2 µM
  TGI: 27.8 µM
SNB-19 CNS
  GI50: 4.01 µM
  TGI: 14 µM
NCI-H226 lung
  GI50: 5.63 µM
  TGI: 20.9 µM
UACC-62 melanoma
  GI50: 2.65 µM
  TGI: 10 µM
LOX IMVI melanoma
  GI50: 2 µM
  TGI: 5.51 µM
U251 CNS
  GI50: 3.63 µM
  TGI: 15.5 µM
EKVX NSCLC
  GI50: 4.04 µM
  TGI: 14.8 µM
SK-MEL-28 melanoma
  GI50: 3.22 µM
  TGI: 11.8 µM
NCI-H23 lung
  GI50: 3.25 µM
  TGI: 11.2 µM
PC-3 prostate
  GI50: 3.17 µM
  TGI: 13.9 µM
A498 renal
  GI50: 5.57 µM
  TGI: 18.9 µM
BT-549 breast
  GI50: 2.95 µM
  TGI: 9.97 µM
SK-MEL-5 melanoma
  GI50: 1.87 µM
  TGI: 4.16 µM
OVCAR-3 ovarian
  GI50: 3.38 µM
  TGI: 13.6 µM
SF-539 CNS
  GI50: 2.76 µM
  TGI: 8.43 µM
OVCAR-4 ovarian
  GI50: 3.52 µM
  TGI: 14.1 µM
MALME-3M melanoma
  GI50: 2.41 µM
  TGI: 9.77 µM
A549 NSCLC
  GI50: 4.28 µM
  TGI: 17.7 µM
HOP-62 NSCLC
  GI50: 6.32 µM
  TGI: 23.6 µM
